The results in this text go back to patent US11719711B2, “Compositions and methods for detecting and/or treating inflammation” (THE GENERAL HOSPITAL CORPORATION, priority 2013, dated 2023).

Assay [1] has as its system pro-inflammatory chemokine mRNA expression in MDCK-C11 cells. The assay can be described thus: Quantitative PCR of pro-inflammatory mediators in MDCK-C11 cells. In kind it is cell-based, Canine.
Experimental: Total RNA was isolated from cells using RNeasy micro kit (Qiagen, Valencia, Calif.) and from tissues using RNeasy Mini kit, as described previously (36). DNase I digestion was performed using RNase-Free DNase Set (Qiagen) according to the manufacturer's instructions. All reverse transcription (RT) and PCR reagents were from Applied Biosystems (Foster City, Calif.). Reverse-transcription was performed for 1 h at 42° C. in a final volume of 50 μl with 1× buffer II, 5 mM MgCl2, 1.0 mM each dNTP, 1 U/μl RNase inhibitor, 2.5 μM random hexamers, and 2.5 U/μl MuLV reverse transcriptase. PCR was performed on RT products. For end point PCRs, reaction mixtures consisted of a 20 μl final volume containing 2 μl template, 1.25 units AmpliTaq Gold DNA polymerase, lx buffer II, 1.5 mM MgCl2, 1.0 mM each dNTP, and 0.5 μM forward and reverse oligonucleotide primers. The following parameters were used for PCR: 8 min at 95° C. to activate the polymerase, 35 cycles of melting for 30 s at 95° C., annealing for 30 s at 60° C., extension for 30 s at 72° C., and a final extension for 10 min at 72° C. The amplification products were visualized by electrophoresis on a 1-2% agarose gel containing GelStar stain (Lonza, Rockland, Me.).
Real Time PCR was performed with a 7300 Real Time PCR system (Applied Biosystems). Amplification products were detected using the Power SYBR Green PCR master mix (Applied Biosystems), according to the manufacturer's instructions. Standard-curve relative quantifications were performed and relative values of each sample were normalized to GAPDH values. Samples were analyzed in triplicates for each experiment.
MDCK-C11 cells were cultured at 37° C. in a 5% CO2-95% O2 mix in DMEM (Invitrogen) supplemented with 2 mM glutamine, 10% fetal bovine serum (Invitrogen), penicillin (100 U/ml), and streptomycin (100 μg/ml) (Invitrogen). Prior to any treatment, cells were serum starved for 24 hours. For cell surface biotinylation assays, cells were either grown to confluence on plastic dishes or on filters. Biotinylation was performed as described previously (75). Briefly cells were incubated with 1 mg/ml of biotin (Thermo Scientific, Pittsburgh, Pa.) in PBS pH 8 on ice for 1 h. The excess biotin was quenched with 100 mM glycine and cells were either further processed for immunostaining or lysed in lysis buffer [150 mM NaCl, 5 mM EDTA, 50 mM Tris/HEPES, pH 7.5; 1% (vol/vol) Triton X-100] containing protease and phosphatase inhibitors (Complete Mini EDTA free, PhosSTOP, Roche Diagnostics, Laval, Canada), for 20 min at 4° C. Total protein expression was determined in 2-5 μg of proteins from the total cell extracts. 50-100 μg of cell lysate proteins were incubated with neutravidin beads (Thermo Scientific) overnight at 4° C. […]
The target of assay [2] is T1, P2Y14 (Mus musculus, UniProt Q9ESG6).
T1 sequence (Q9ESG6 1-338): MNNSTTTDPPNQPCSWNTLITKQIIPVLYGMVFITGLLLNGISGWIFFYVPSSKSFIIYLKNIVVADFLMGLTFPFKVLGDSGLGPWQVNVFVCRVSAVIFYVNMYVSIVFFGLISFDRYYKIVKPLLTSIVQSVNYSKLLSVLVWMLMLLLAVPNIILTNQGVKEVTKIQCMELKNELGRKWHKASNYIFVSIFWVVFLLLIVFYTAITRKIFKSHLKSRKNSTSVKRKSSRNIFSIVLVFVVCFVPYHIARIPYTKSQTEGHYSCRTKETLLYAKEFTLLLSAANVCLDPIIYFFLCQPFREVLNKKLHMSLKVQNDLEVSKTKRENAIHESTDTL
The conditions noted are these: EGFP(+) cell membranes, saturating concentration 10^−5 M unlabeled ligand.
Experimental: Mice were anesthetized using pentobarbital sodium (50 mg/kg body, ip, Nembutal, Abbott Laboratories, Abbott Park, Ill.). The blood was flushed out of the organs by perfusing the animals with a phosphate-buffered saline (PBS) through the cardiac left ventricle at a constant flow rate of 17 ml/min. Kidneys were excised and sliced, and some kidneys were microdissected to separate the cortex from the medulla. Tissues were then minced immediately with scissors in RPMI 1640 medium (Invitrogen, Grand Island, N.Y.) containing 1.0 mg/ml collagenase type I (Invitrogen), 1.0 mg/ml collagenase type II (Sigma Aldrich) and 2 mg/ml hyaluronidase (Sigma Aldrich), and digested for 45 min at 37° C. A 40-μm-nylon mesh was used to remove undigested material following tissue digestion. Cells were then washed once with RPMI 1640 medium and once with a calcium-free PBS. EGFP-positive (EGFP(+)) and negative (EGFP(−)) cells were isolated immediately by FACS, based on their green fluorescence intensity, as described previously (36). […]
Confluent MDCK-C11 cells were scrapped in ice-cold PBS, pelleted by centrifugation (500 g, 10 min) and then resuspended in 1 ml ice-cold Tris-acetate 0.2 M buffer (pH 7.5) containing protease inhibitors (Complete Mini, Roche, Indianapolis, Ind.) using a 25G needle. […] Protein concentration was determined using a nanodrop 2000 (Thermo scientific). […]

Assay [3] deals with T2, P2Y14 (Canis lupus familiaris, UniProt A0A8I3S656).
T2 sequence (A0A8I3S656 1-340): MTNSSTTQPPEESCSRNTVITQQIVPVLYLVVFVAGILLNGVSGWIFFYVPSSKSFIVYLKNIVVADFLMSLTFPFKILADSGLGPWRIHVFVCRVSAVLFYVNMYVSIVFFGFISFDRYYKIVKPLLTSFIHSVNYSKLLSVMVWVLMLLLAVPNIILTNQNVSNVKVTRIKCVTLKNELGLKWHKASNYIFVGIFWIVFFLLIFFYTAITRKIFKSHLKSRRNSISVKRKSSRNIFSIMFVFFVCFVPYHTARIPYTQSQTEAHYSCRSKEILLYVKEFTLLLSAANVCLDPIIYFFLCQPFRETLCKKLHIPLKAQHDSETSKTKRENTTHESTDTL
The assay can be described thus: [3H]UDP-glucose dose-displacement binding to MDCK-C11 membranes. Details: endogenous in cells; host or cells: MDCK-C11 cells (Madin-Darby Canine Kidney subclone C11), not transfected; species or system Canine. The conditions noted are these: MDCK-C11 membranes 15 μg, [3H]UDP-glucose 3 nM, 3 hours 22° C., increasing concentrations (ATP up to 10 μM).
Experimental: Incubation was terminated by the addition of ice-cold 50 mM Tris/HCl pH 7.4, 1 mM EDTA, 5 mM MgCl2 and was followed immediately by filtration under vacuum through Gelman A/E glass filters (Pall life science, An Arbor, Mich.) pre-soaked in binding buffer. The filters were rinsed twice before the addition of 5 ml of scintillation fluid (OpticFluor, Groninge, The Netherlands). Receptor-bound radioactivity was measured using liquid scintillation analyzer Tricarb 2200 CA from Parckard. All assays were performed in triplicate. […] Incubations were stopped by the addition of ice-cold buffer and receptor-bound radioactivity was determined as described above. The equilibrium dissociation constant (Kd) and the capacity of binding in dose-displacement studies were calculated using a scatchard plot and are expressed as the mean±SD. Statistical analysis were performed using the unpaired Student t-test.

Assay [4] concerns the target T1, P2Y14. In words: ERK1/2 phosphorylation in FACS isolated EGFP(+) intercalated cells (immunoblot). Type of assay: cell-based. Set-up: using total membranes separated from FACS isolated EGFP(+) cells and EGFP(−) cells; endogenous in cells; host or cells: EGFP(+) intercalated cells freshly isolated by FACS from kidneys of B1-EGFP transgenic mice. The conditions noted are these: with PPTN.
Experimental: Mice were anesthetized using pentobarbital sodium (50 mg/kg body, ip, Nembutal, Abbott Laboratories, Abbott Park, Ill.). The blood was flushed out of the organs by perfusing the animals with a phosphate-buffered saline (PBS) through the cardiac left ventricle at a constant flow rate of 17 ml/min. Kidneys were excised and sliced, and some kidneys were microdissected to separate the cortex from the medulla. Tissues were then minced immediately with scissors in RPMI 1640 medium (Invitrogen, Grand Island, N.Y.) containing 1.0 mg/ml collagenase type I (Invitrogen), 1.0 mg/ml collagenase type II (Sigma Aldrich) and 2 mg/ml hyaluronidase (Sigma Aldrich), and digested for 45 min at 37° C. A 40-μm-nylon mesh was used to remove undigested material following tissue digestion. Cells were then washed once with RPMI 1640 medium and once with a calcium-free PBS. EGFP-positive (EGFP(+)) and negative (EGFP(−)) cells were isolated immediately by FACS, based on their green fluorescence intensity, as described previously (36). Cell isolation was performed at the MGH flow cytometry core facility using a modified FACS Vantage cell sorter (BD Biosciences, San Jose, Calif.). FACS isolated samples were collected in PBS and used without delay for subsequent treatment and/or cell fractionation, protein and RNA isolation, or imaging. […]

Assay [5] deals with T2, P2Y14. Conditions: MDCK-C11 cells, PPTN 10 μM pre-treatment 30 minutes, 100 μM UDP-glucose.
[6] abbreviates: PD98059 50 μM pretreatment 30 minutes.

With `COc1cccc(-c2cc(=O)c3ccccc3o2)c1N` [PD98059], in assay [1] (setting [6]), the “UDP-glucose induced up regulation of CCL-2 mRNA” value was “abolished” and the “UDP-glucose induced up regulation of IL-8 mRNA” value is “abolished”.

Consider `Nc1ncnc2c1ncn2[C@@H]1O[C@H](COP(=O)(O)OP(=O)(O)OP(=O)(O)O)[C@@H](O)[C@H]1O` [ATP], for which the “displacement of [3H]UDP-glucose binding” value on P2Y14 [2] is given as “not with ATP”. Also, on P2Y14 [3], the “inhibition of [3H]UDP-glucose binding by unlabeled ligand” value is given as “no significant inhibitory effect”.

Regarding `O=C(O)c1cc(-c2ccc(C3CCNCC3)cc2)c2ccc(-c3ccc(C(F)(F)F)cc3)cc2c1` [PPTN, 4-[4-(piperidin-4-yl)phenyl]-7-[4-(trifluoromethyl)phenyl]-2-naphthoic acid], in assay [1] (PPTN pretreatment 30 minutes), the “increase in CCl2 mRNA expression induced by UDP-glucose” value is “abolished” and the “increase in IL8 mRNA expression induced by UDP-glucose” value is recorded as “abolished”. At P2Y14 [4], the “UDP-glucose dependent ERK phosphorylation in ICs isolated by FACS (FIG. 14)” value is “inhibits”. The “UDP-glucose induced increase in ERK1/2 phosphorylation” value at P2Y14 [5] was “abolished”.
